pIC50: −log10 of the molar value. Where two headings read alike, the source gives them in different places.
What was measured:
[1] = target: T1, COX2 (Homo sapiens, UniProt P35354); test: biochemical
T1 construct: purchased Cayman Chemical, USA 560131
T1 sequence (P35354 18-604): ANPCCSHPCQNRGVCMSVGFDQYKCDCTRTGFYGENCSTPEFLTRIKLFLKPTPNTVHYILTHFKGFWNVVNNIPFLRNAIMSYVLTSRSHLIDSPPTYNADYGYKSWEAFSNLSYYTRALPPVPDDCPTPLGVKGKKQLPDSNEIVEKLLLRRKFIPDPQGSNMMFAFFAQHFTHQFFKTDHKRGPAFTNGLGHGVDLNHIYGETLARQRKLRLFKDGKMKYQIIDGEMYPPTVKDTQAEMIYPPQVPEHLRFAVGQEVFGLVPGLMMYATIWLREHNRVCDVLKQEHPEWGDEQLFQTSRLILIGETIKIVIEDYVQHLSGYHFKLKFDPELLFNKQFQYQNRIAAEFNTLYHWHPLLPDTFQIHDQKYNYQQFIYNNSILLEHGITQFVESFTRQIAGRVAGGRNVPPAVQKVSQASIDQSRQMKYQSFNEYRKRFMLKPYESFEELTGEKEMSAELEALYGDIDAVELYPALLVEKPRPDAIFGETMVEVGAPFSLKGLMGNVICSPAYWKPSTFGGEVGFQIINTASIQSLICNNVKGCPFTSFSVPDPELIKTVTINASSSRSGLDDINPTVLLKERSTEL
Method: IR (infrared) spectra were done using FTIR (Thermo Fisher Nicolet IS5). […] Nuclear magnetic resonance (NMR) spectra were obtained using the Bruker Avance (300 MHz) spectrometer, micropipettes (Finnpipette, Finland), incubator (Nuve, Turkey), syringe filter 0.45 μm pore size (Microlab, China), microbroth plate (Greiner bio-one, North America), and LABiTec (Germany) for PT and aPTT tests.
The plate is washed with a buffer solution, and Ellman's reagent, which contains the substrate of acetylcholinesterase, is added to the well. […] The anti-inflammatory effect of the tested compounds was evaluated by calculating the percentage inhibition of PGE2 production.

[2] = test system: platelet poor citrated plasma; test: Prothrombin time (PT) test; assay type: biochemical, human; settings: drug sample 3000 mg/L; for PT Average ± SD: average of three volunteers; for PT: equal volume with plasma, 5 min at 37°C
Method: (§1) PT and aPTT tests were carried out simultaneously. Blood samples from three healthy volunteers were collected in sodium citrated blood tubes (Vacutainer, BD). Blood samples were then centrifuged for 15 min at 1500 rpm to prepare platelet poor citrated plasma. The LABiTec (Germany) apparatus was used for the determination of PT and aPTT. Equal volumes of drug samples (3000 mg/L) and platelet-depleted plasma were incubated for 5 min at 37°C. The PT test was performed as follows: a 100 μl of tissue thromboplastin (HUMAN) was added to 50 μl of prewarmed mixture, and clotting time was measured. For the aPTT test, 50 μl of rabbit brain extract was added to equal volume of the prewarmed platelet poor plasma-extract mixture incubated for 1 minute after which 50 μl of 0.025 M calcium chloride (HUMAN) was added and clotting time was measured; PBS was used as control.

[3] = test system: platelet poor citrated plasma; test: Activated partial thromboplastin time (aPTT) test; assay type: biochemical, human; settings: drug sample 3000 mg/L; for aPTT Average ± SD: average of three volunteers; for aPTT: equal volume with plasma, 5 min at 37°C
Method: as §1

[4] = target: T2, COX1 (Ovis aries, UniProt P05979); test: COX inhibitor screening assay kit (Cayman No. 560131), COX1; assay type: biochemical; design: purchased Cayman Chemical, USA 560131; settings: for IC50: ELISA kit, calculated from percentage inhibition of PGE2 production, read-out: IC50 for COX1 enzyme (converted)
T2 sequence (P05979 25-600): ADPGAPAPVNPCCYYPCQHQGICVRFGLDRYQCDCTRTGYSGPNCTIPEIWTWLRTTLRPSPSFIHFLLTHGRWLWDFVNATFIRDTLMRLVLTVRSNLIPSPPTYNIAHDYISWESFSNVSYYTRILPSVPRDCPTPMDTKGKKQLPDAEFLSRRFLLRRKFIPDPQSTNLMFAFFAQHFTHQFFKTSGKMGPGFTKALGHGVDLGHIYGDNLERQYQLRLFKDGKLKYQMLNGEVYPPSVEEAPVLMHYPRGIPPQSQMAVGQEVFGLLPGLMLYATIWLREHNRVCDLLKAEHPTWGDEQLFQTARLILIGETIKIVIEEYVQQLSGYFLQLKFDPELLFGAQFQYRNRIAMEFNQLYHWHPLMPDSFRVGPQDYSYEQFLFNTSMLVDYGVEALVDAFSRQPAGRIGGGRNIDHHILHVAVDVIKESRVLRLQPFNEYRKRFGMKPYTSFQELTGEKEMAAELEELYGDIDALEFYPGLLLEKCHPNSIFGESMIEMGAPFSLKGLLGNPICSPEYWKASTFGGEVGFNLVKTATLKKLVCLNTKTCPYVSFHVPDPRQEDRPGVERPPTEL
Method: The instrumentation used in this project includes magnetic stirrer and heater (LM-1003), weighing balance (Adventurer-OHAVS-AR2140), and rotaevaporator (Heidolph-OB2000). IR (infrared) spectra were done using FTIR (Thermo Fisher Nicolet IS5). The UV-VIS spectra were done using the JENWAY-7315 spectrophotometer. Nuclear magnetic resonance (NMR) spectra were obtained using the Bruker Avance (300 MHz) spectrometer, micropipettes (Finnpipette, Finland), incubator (Nuve, Turkey), syringe filter 0.45 μm pore size (Microlab, China), microbroth plate (Greiner bio-one, North America), and LABiTec (Germany) for PT and aPTT tests. The Cyclooxygenase (COX) enzyme inhibition test was performed using COX inhibitor screening assay kit No. 560131 Cayman Chemical, USA and was read by Elisaplate Reader (BioRad, Japan).
COX1 and COX2 inhibition activities were determined using a COX inhibitor screening assay kit No. 560131 by Cayman Chemical, USA. The plate is washed with a buffer solution, and Ellman's reagent, which contains the substrate of acetylcholinesterase, is added to the well. The yellow product of this enzymatic reaction is determined spectrophotometrically in a microplate reader (BioRad, Japan) at 415 nm. […]. The anti-inflammatory effect of the tested compounds was evaluated by calculating the percentage inhibition of PGE2 production.

[5] = target: T2, COX1; settings: previous published literature; cited from earlier work
[6] = target: T1, COX2; settings: previous published literature; read-out: inhibition activity for COX2 enzyme (converted); cited from earlier work

COc1ccc2cc([C@H](C)C(=O)Oc3ccc(NC(C)=O)cc3)ccc2c1 [Nap-Para ester]
pIC50 [1]: 5.28 | PT Average ± SD [2]: 21.8 ± 2.86 s | PT ([2]; volunteer 1): 20.4 s | PT ([2]; volunteer 2): 19.9 s | PT ([2]; volunteer 3): 25.1 s | aPTT Average ± SD [3]: 69.9 ± 8.79 s | aPTT Average ± SD ([3]; listed as naproxen-paracetamol ester): 69.9 ± 7.7 s | aPTT ([3]; volunteer 1): 78.2 s | aPTT ([3]; volunteer 2): 70.9 s | aPTT ([3]; volunteer 3): 60.7 s | IC50 [4]: 4.13 µM

CC(=O)Nc1ccc(O)cc1 [Paracetamol, reference compound]
PT Average ± SD [2]: 21.7 ± 4.52 s | PT ([2]; volunteer 1): 18.5 s | PT ([2]; volunteer 2): 19.4 s | PT ([2]; volunteer 3): 27.1 s | aPTT Average ± SD [3]: 72 ± 8.7 s | aPTT ([3]; volunteer 1): 73.1 s | aPTT ([3]; volunteer 2): 62.8 s | aPTT ([3]; volunteer 3): 80.2 s | inhibition activity for COX1 enzyme [5]: less IC50 inhibition activity

COc1ccc2cc([C@H](C)C(=O)O)ccc2c1 [Naproxen]
IC50 [6]: 5.65 µM

CC(C)Cc1ccc(C(C)C(=O)O)cc1 (stereo not drawn) [Ibuprofen, reference compound]
PT Average ± SD [2]: 21.3 ± 3.3 s

CC(=O)Nc1ccc(OC(=O)C(C)c2ccc(CC(C)C)cc2)cc1 (stereo not drawn) [Ibu-Para ester, 4-Acetamidophenyl 2-(4-isobutylphenyl) propanoate]
IC50 ([1]; ELISA kit, calculated from percentage inhibition of PGE2 production, read-out: IC50 for COX2 enzyme (converted)): 6.5 µM | PT Average ± SD [2]: 23.8 ± 6.08 s | PT ([2]; volunteer 1): 19.8 s | PT ([2]; volunteer 2): 20.8 s | PT ([2]; volunteer 3): 30.8 s | aPTT Average ± SD [3]: 71 ± 0.9 s | aPTT ([3]; volunteer 1): 71.2 s | aPTT ([3]; volunteer 2): 71.8 s | aPTT ([3]; volunteer 3): 70 s | IC50 [4]: 1.56 µM | selectivity COX1 versus COX2 ([4]; comparison of the COX1 and COX2 IC50): more selective towards COX1

From article PMC7271289, “Anti-Inflammatory and Anticoagulant Activities of Synthesized NSAID Prodrug Esters” (Scientifica, 2020)
